# Measured values taken from paper PMC5566978, “Human Leukocyte Antigen (HLA)-DRB1*15:01 and HLA-DRB5*01:01 Present Complementary Peptide Repertoires” (Frontiers in Immunology, 2017).
# pIC50: −log10 of the molar value. Where no end group is shown, it is not given here.
# What was measured:
# [1] = molecular target: recombinant DR2a (DRA1*01:01/DRB5*01:01) (Homo sapiens, UniProt P01903+Q30154); assay: Competition peptide-binding assay to recombinant DR2a; details: competition with 1 µM biotinylated modified GAD555-567 peptide, wells coated with HLA-DR2a, europium-streptavidin time resolved fluorescence
# Protocol: (§1) The experimental affinity of different peptides to HLA-DR molecules was determined as previously described ([31]). Briefly, recombinant DR2b (DRA1*01:01/DRB1*15:01) and DR2a (DRA1*01:01/DRB5*01:01) proteins were used for peptide-binding assays. Increasing concentrations of each non-biotinylated test peptide were incubated in competition with 1 µM of the biotinylated GAD555-567 peptide ([…], modified from […] to bind to DRB1*15:01 and DRB5*01:01 in a single unambiguous register) in wells coated with HLA-DR2a or HLA-DR2b. After washing, residual biotinylated reference peptide was labeled using europium conjugated streptavidin (Perkin Elmer) and quantified using a Victor3 D time resolved fluorometer (Perkin Elmer). Peptide-binding curves were simulated by non-linear regression with Prism Software (version 4.03, GraphPad Software Inc.) using a sigmoidal dose–response curve. IC50 binding values were calculated from the resulting curves as the peptide concentration needed for 50% inhibition of reference peptide binding. Equivalent amounts of purified HLA-DR protein were plated on each plate, but similar amounts of total protein can have different levels of activity. Thus, different preparations of protein frequently give different levels of maximum counts (presumably based on differences in purity and the proportion of the protein that is functional). Indeed differences between different preparations of the same HLA-DR protein can be observed.
# (§2) Figure 4 Experimental binding affinity of peptides sequenced from MGAR and (A) Binding to DR2a or (B) Binding to DR2b. Increased concentration of the peptides were incubated in wells coated with recombinant human leukocyte antigen (HLA)-DR2a or HLA-DR2b in competition with 1 µM biotinylated modified GAD555-567 peptide ([…], modified from […] to bind to DRB1*15:01 and DRB5*01:01 in a single unambiguous register) to generate binding curves. After washing, residual biotinylated reference peptide was labeled using europium-conjugated streptavidin and quantified. The Y-axis depicts raw europium counts, which is proportional to the amount of residual biotinylated peptide that remains bound to HLA class II. White-filled symbols represent peptides eluted from DR2a. Black-filled symbols represent peptides eluted from DR2b.
# [2] = molecular target: recombinant DR2b (DRA1*01:01/DRB1*15:01) (Homo sapiens, UniProt P01903+P01911); assay: Competition peptide-binding assay to recombinant DR2b; details: competition with 1 µM biotinylated modified GAD555-567 peptide, wells coated with HLA-DR2b, europium-streptavidin time resolved fluorescence
# Protocol: as §1, §2
pIC50 [1],pIC50 [2],BINDING IC50 DR2a [1],Sequence
5.24,< 4.30,,SQAEFEKAAEEVRHL
< 4.30,< 4.30,,QKKEIHLYQTFVVQLQDPREP
,< 4.30,,QTKEFQVLKSLGKLAMG
< 4.30,< 4.30,,QKKEIHLYQTFVVQ
,< 4.30,,ELEELRAEQQRLKSQDL
< 4.30,< 4.30,,LEEFGRFASFEAQG
< 4.30,< 4.30,,QKKEIHLYQTFVVQL
< 4.30,,non-detectable affinity,LPSEKAIFLFVDKTVPQS
< 4.30,< 4.30,,LEEFGRFASFEAQGA
< 4.30,< 4.30,,QKKEIHLYQTFVVQLQDPR
